# Experiments:
# [1] = test system: diabetic Sprague Dawley rats injected with lipopolysaccharide from Porphyromonas gingivalis; test: LPS-induced periodontitis (alveolar bone loss, root/enamel ratio) in streptozotocin diabetic rats fed ARI diets; assay type: in vivo, rat; conditions: for ratio of exposed root to enamel area, PBS side: PBS injected (left, internal control) side; for ratio of exposed root to enamel area, PBS side / ratio of exposed root to enamel area, LPS side: mean±S.E.M.; for ratio of exposed root to enamel area, LPS side: LPS injected (right) side
# Protocol: A group of 80 approximately 81-100 g male Sprague Dawley rats were utilized for this study. Diabetes was induced in 40 of these rats by tail vein injection of 75 mg/kg of streptozotocin. After 3 days, blood glucose (BG) levels in blood obtained from tail vein lacerations were analyzed with a commercial glucometer (Freestyle by TheraSense, Alameda, Calif.). Each rat with BG levels <300 mg/dL were reinjected with streptozotocin. Again, BGs were measured after 3 days, and the procedure was repeated a third time for remaining rats with BGs <300 mg/dL.
# (§1) All rats with blood glucose levels >300 mg/dL were then equally divided into 4 groups. The first diabetic group of 8 rats received standard rat diet (BioServe), the second received similar rat diet containing 0.015% of tolrestat, the third group received similar diet containing 0.0125% imirestat, and the fourth group received similar diet containing 0.08% quercetin. Experimental diets were initiated 10 days following initial streptozotocin injections and continued for 10 weeks until the studies were terminated. Non-diabetic age-matched rats were also added as additional non-diabetic controls. These consisted of 4 groups of 8 rats each as follows: an untreated non-diabetic group received standard rat diet, the second control group received similar rat diet containing 0.015% of tolrestat, the third control group received similar diet containing 0.0125% imirestat, and the fourth control group received similar diet containing 0.08% quercetin.
# A maximum of 3 rats were housed per cage. Weekly consumption of diet/cage and body weights of each cage occupant was measured throughout the study. Drugs diets were prepared by adding the appropriate weight of drug to 3 kg portions of standard rat chow as follows. The weighed drug dissolved in 400 mL of ethanol was uniformly sprayed onto a monolayer of the rat chow. After the upper layer of chow was uniformly wetted, the chow was mixed and again formed into a monolayer, and the procedure was repeated until the entire drug solution was utilized. Following overnight oven drying to ensure that all solvent was removed, weighed amounts of diet were administered to each appropriate group of animals.
# (§2) Forty-four days after initiation of diets, each rat was anesthetized with 4% isoflurane vapor in an induction chamber. Each rat was then placed on its back and the palatal gingiva between the first and second maxillary molars on the right side was injected with 10 μL of a phosphate-buffered saline (PBS) solution containing 1 mg/mL lipopolysaccharide LPS from Porphyromonas gingivalis (InvivoGen, San Diego, Calif.) using an insulin syringe equipped with a blunted edge 30-gauge needle to induce the formation of periodontitis. As a control, 10 μL of PBS was similarly injected into the left side of the jaw. This injection was followed by two additional injections at 48-hour intervals. Twenty-four days after the final injection, all rats were euthanized with carbon dioxide gas. The heads were decapitated with a guillotine and frozen for subsequent defleshing. Blood from each rat was obtained by heart puncture and HbA1c levels were measured using the Metrika A1cNOW Plus System Test Strips (Fisher Healthcare).
# Each thawed head was manually defleshed using standard dental instruments by Dr. James O'Meara, Assoc. Professor of General Dentistry at Creighton University of Omaha, Nebr. The maxillary area was separated from the remaining skull using bone cutters, and each defleshed left and right maxillary alveolus with molars were stored in PBS buffer. Finally, all cleaned maxillary alveoli were placed in 3% aqueous peroxide solution overnight and air dried. They were then stained in 5% aqueous toluidine blue to identify the cemento-enamel junction (CEJ) on the molars. After air drying, each stained preparation was examined under a dissecting microscope and cleaned of any remaining flesh particles using the tip of a 20-gauge needle. […]
# [2] = test system: non-diabetic Sprague Dawley rats injected with lipopolysaccharide from Porphyromonas gingivalis; test: LPS-induced periodontitis (alveolar bone loss, root/enamel ratio) in non-diabetic rats fed ARI diets; assay type: in vivo, rat; conditions: for ratio of exposed root to enamel area, LPS side / ratio of exposed root to enamel area, PBS side: non-diabetic rats; for ratio of exposed root to enamel area, LPS side: first value of 'LPS and PBS sides ... respective ratios'; for ratio of exposed root to enamel area, PBS side: second value of 'LPS and PBS sides ... respective ratios'; for difference in the ratios between the LPS and PBS sides: normal (non-diabetic) rats, FIG. 7
# Protocol: as §1, §2
# Each thawed head was manually defleshed using standard dental instruments by Dr. James O'Meara, Assoc. Professor of General Dentistry at Creighton University of Omaha, Nebr. The maxillary area was separated from the remaining skull using bone cutters, and each defleshed left and right maxillary alveolus with molars were stored in PBS buffer. Finally, all cleaned maxillary alveoli were placed in 3% aqueous peroxide solution overnight and air dried. They were then stained in 5% aqueous toluidine blue to identify the cemento-enamel junction (CEJ) on the molars. After air drying, each stained preparation was examined under a dissecting microscope and cleaned of any remaining flesh particles using the tip of a 20-gauge needle. Each palatal preparation was then placed onto a 20 mm petri dish containing ultrafine chromatography grade silica and a mm ruler. The maxilla-molar area palatal sides were then photographed using a PAXcam2+ USB2 Digital Microscope Camera attached to a Zeiss dissection microscope at 40' magnification. 2.0 MP images were captured with 1616×1216 image resolution. The images were analyzed using Pax-it software (Paxcam, Chicago, Ill.). Care was taken to obtain images with consistent camera angles.
# In each image the two molars between which the injections were made were analyzed. The exposed side of each molar was manually outlined along with the area encompassed by the cemento-enamel junction (CEJ) and exposed root area. To facilitate differentiation of the exposed root area and the CEJ, each photograph was photo-enhanced as required using sharpening or desaturating techniques. Multiple tracings were obtained and averaged for each image. Moreover, since tooth movement can also increase variability, multiple images of the same sample were also analyzed, if necessary. The area measurements from both molars were combined, and from these combined area measurements, a ratio of exposed root area (root to the CEJ) versus enamel area was obtained. […]
# [3] = commercial version (Alredase), withdrawn 1996 or 1997; cited from earlier work
# diabetic mice = conditions: cited from earlier work
# TNF-α = target: T1, TNF-α (Mus musculus, UniProt P06804); conditions: diabetic mice inoculated with Porphyromonas gingivalis; cited from earlier work
# T1 construct: host or cells: diabetic mice (in vivo, endogenous TNF-α)
# T1 sequence (P06804 80-235 limits assumed): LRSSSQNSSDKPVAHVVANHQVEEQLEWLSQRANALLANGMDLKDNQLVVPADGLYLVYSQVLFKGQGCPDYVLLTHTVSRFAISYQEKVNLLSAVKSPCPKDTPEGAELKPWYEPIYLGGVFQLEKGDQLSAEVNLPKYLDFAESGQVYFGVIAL
# crevicular PMNs = conditions: rats with chemically induced diabetes; cited from earlier work
Compound,"ratio of exposed root to enamel area, PBS side [1]","ratio of exposed root to enamel area, LPS side [2]","ratio of exposed root to enamel area, PBS side [2]",difference in the ratios between the LPS and PBS sides [2],"ratio of exposed root to enamel area, LPS side [1]",also measured
COc1ccc2c(C(=S)N(C)CC(=O)O)cccc2c1C(F)(F)F [tolrestat],0.435±0.010,0.435±0.039,0.422±0.036,no significant difference,,reported adverse events leading to market withdrawal [3]: fatalities from hepatic necrosis
N-benzyloxycarbonyl-Val-Ala-Asp-fluoromethyl-ketone [z-VAD-fmk],,,,,,"healing parameters (fibroblast density, collagen I and III mRNA, matrix formation, bone-lining cells, new bone formation) (diabetic mice): significant improvements in several healing parameters"
Enbrel,,,,,,prolonged cytokine expression (TNF-α): reversal of the prolonged cytokine expression
O=C1NC(=O)C2(N1)c1cc(F)ccc1-c1ccc(F)cc12 [imirestat],0.421±0.029,0.412±0.016,0.439±0.0132,no significant difference,0.439±0.043,alveolar bone loss ([1]; result in words): effective in reducing alveolar bone loss
O=c1c(O)c(-c2ccc(O)c(O)c2)oc2cc(O)cc(O)c12 [quercetin],0.440±0.023,0.406±0.018,0.417±0.042,no significant difference,0.448±0.057,
insulin: insulin administration to diabetic rats,,,,,,chemotactic response of crevicular PMNs to casein (crevicular PMNs): reverses this decrease

# Source: patent US20100292287A1, “Periodontitis treatment” (priority 2009, published 2010)
